Data as given in US11352340B2, “Pyridine and pyridimine compounds as PI3K-gamma inhibitors” (Incyte Corporation, priority 2016, dated 2022).
Counter-ions that a name gives are not always drawn. Like-named read-outs stand apart in the source and are kept apart here.

How the values were obtained:
[1] = system: Phosphorylated Ribosomal Protein S6 (RPS6) in THP-1 cells; assay: THP-1 RPS6 ELISA Assay; format: cell-based, Human; settings: MCP-1 stimulated, phospho-RPS6 ELISA, read-out: THP p-RPS6 ELISA IC50
Method in brief: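 Serum-starved THP-1 cells (2×10^5/well, RPMI) preincubated with compound 2 h at 37° C, then stimulated with 10 nM MCP-1 for 15 min. Lysates assayed by phospho-RPS6 ELISA, absorbance 450 nm (540 nm correction); IC50 from percent inhibition versus log concentration.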

[2] = molecular target: PI3Kγ (p110γ) Recombinant Human Protein (Homo sapiens (Human), UniProt P48736); assay: PI3K-γ Scintillation Proximity Assay; format: biochemical; settings: read-out: PI3K-gamma SPA IC50
Method in brief: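 Recombinant human p110γ (13 nM) with 20 μM PIP2 and 2 μM ATP plus 0.5 μCi [γ-33P]ATP in 20 mM MOPS pH 6.7, 10 mM MgCl2, 5 mM DTT, 0.03% CHAPS, 2% DMSO, 120 min at room temperature. Product captured on WGA SPA beads and counted; IC50 fitted from % of solvent control versus log concentration.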

[3] = molecular target: PI3Kδ (p110δ/p85α) Recombinant Human Protein (Homo sapiens (Human), UniProt O00329); assay: PI3Kδ Scintillation Proximity Assay; format: biochemical; settings: read-out: PI3K-delta SPA IC50
Method in brief: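 Recombinant human p110δ/p85α (3.4 nM) phosphorylates 20 μM di-octanoyl PIP2 using 2 μM ATP spiked with [γ-33P]ATP, 120 min, room temperature, pH 6.7, 2% DMSO. Product measured by scintillation proximity; IC50 from dose-response fit.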

Chain of PI3Kδ (p110δ/p85α) Recombinant Human Protein (O00329 whole entry): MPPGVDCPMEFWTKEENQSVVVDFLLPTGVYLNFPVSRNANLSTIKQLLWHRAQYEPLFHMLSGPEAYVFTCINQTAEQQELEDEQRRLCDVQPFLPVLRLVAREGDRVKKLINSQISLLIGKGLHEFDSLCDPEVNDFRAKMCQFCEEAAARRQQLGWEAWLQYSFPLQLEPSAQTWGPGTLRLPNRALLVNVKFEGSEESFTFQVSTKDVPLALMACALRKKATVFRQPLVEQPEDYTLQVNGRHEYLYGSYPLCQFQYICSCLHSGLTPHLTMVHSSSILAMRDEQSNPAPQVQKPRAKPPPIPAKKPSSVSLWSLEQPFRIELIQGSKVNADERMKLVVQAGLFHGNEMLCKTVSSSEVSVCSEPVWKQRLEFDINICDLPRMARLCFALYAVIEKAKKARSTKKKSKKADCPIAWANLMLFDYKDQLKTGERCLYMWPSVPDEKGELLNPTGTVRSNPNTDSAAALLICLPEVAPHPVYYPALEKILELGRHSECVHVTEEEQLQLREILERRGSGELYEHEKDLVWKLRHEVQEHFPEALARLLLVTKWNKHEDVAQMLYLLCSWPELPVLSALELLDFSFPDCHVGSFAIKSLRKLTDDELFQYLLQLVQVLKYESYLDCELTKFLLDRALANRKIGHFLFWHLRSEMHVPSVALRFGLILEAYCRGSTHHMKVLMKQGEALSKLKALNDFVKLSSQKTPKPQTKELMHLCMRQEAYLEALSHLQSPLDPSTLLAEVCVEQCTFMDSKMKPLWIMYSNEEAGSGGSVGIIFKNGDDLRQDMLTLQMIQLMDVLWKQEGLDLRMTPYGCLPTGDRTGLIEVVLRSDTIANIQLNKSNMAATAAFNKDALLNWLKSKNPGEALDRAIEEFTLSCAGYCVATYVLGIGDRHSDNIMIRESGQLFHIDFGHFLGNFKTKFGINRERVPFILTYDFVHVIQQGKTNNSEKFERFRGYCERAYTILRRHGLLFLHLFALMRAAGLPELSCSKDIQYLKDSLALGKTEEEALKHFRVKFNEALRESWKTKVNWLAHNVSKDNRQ
Chain of PI3Kδ (p110δ/p85α) Recombinant Human Protein (P27986 whole entry partner): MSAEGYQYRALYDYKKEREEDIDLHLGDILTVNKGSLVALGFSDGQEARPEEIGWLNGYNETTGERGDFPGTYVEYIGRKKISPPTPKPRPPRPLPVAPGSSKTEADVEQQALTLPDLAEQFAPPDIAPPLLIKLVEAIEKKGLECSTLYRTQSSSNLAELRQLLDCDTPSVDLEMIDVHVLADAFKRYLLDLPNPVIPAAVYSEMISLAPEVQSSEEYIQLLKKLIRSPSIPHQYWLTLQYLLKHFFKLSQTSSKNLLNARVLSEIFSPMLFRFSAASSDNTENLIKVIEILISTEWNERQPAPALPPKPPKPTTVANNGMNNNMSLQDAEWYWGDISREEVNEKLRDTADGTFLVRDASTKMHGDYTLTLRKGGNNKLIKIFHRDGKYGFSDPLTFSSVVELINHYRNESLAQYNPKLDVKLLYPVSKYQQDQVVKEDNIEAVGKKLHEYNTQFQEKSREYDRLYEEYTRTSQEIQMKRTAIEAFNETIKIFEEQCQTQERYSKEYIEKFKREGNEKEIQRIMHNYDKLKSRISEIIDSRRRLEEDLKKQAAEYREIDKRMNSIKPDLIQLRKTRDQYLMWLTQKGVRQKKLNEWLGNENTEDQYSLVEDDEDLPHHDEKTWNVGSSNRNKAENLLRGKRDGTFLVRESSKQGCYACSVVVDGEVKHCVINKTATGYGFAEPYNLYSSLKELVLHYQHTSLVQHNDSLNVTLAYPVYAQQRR
Chain of PI3Kγ (p110γ) Recombinant Human Protein (P48736 whole entry): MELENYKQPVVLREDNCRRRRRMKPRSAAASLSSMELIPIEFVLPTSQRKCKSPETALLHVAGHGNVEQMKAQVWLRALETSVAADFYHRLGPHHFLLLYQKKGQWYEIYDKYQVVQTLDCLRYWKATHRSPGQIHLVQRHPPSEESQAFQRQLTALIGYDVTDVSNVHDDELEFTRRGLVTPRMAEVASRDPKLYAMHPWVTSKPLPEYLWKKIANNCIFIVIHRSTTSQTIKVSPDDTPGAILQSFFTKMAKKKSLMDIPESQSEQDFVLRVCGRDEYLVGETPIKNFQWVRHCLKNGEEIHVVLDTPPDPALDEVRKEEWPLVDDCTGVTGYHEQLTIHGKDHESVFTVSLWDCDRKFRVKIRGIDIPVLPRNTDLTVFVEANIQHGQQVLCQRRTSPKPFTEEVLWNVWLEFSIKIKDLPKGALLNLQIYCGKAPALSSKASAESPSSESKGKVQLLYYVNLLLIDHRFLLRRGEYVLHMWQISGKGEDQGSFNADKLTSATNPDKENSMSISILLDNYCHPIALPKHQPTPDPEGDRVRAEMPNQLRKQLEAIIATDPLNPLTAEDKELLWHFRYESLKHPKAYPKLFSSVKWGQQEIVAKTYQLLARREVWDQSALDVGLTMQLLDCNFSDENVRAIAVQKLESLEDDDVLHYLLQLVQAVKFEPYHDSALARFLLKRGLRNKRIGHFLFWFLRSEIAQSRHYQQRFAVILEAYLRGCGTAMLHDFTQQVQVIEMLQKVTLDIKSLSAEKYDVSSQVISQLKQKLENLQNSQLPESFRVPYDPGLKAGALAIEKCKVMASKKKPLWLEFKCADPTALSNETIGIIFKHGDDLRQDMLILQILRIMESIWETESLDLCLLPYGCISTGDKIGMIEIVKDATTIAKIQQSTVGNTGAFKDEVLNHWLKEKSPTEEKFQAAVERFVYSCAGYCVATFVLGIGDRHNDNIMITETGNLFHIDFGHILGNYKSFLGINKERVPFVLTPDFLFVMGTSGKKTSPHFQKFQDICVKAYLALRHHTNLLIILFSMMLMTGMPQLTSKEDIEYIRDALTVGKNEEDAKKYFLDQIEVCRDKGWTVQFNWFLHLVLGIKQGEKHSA

Structure (SMILES) | IC50 ([1]; Homo sapiens) | IC50 [2] | IC50 [3] | IC50 [1]
Cc1nc(-c2cc(-c3cncc(C(=O)NC(C)(C)C)c3)ccn2)[nH]c1C [Example 208, N-(tert-Butyl)-2′-(4,5-dimethyl-1H-imidazol-2-yl)-3,4′-bipyridine-5-carboxamide trifluoroacetate salt] | 1000 to 5000 nM | ≤ 50 nM | ≤ 100 nM | –
COC1CN(C(=O)c2cncc(-c3ccnc(-c4nc(C)c(C)[nH]4)c3)c2)C1 [Example 199, 2′-(4,5-Dimethyl-1H-imidazol-2-yl)-5-[(3-methoxyazetidin-1-yl)carbonyl]-3,4′-bipyridine] | ≤ 300 nM | ≤ 50 nM | ≤ 50 nM | –
Cc1nc(-c2cc(-c3cncc(C(=O)NC(C)C)c3)ccn2)[nH]c1C [Example 157, 2′-(4,5-Dimethyl-1H-imidazol-2-yl)-N-isopropyl-3,4′-bipyridine-5-carboxamide trifluoroacetate salt] | 1000 to 5000 nM | ≤ 100 nM | ≤ 500 nM | –
Cc1[nH]c(-c2cc(-c3cncc(N4CCOCC4)c3)ccn2)nc1C(=O)NC1C2CC3CC(C2)CC1C3 (stereo not drawn) [Example 278, N-2-Adamantyl-5-methyl-2-(5-morpholin-4-yl-3,4′-bipyridin-2′-yl)-1H-imidazole-4-carboxamide trifluoroacetate salt] | 300 to 1000 nM | ≤ 50 nM | ≤ 50 nM | –
Cc1nc(-c2cc(-c3cncc(C(=O)N4CCC4)c3)ccn2)[nH]c1C [Example 191, 5-(Azetidin-1-ylcarbonyl)-2′-(4,5-dimethyl-1H-imidazol-2-yl)-3,4′-bipyridine trifluoroacetate salt] | ≤ 300 nM | ≤ 50 nM | ≤ 50 nM | –
c1ccc(-c2cnc(-c3cc(-c4cncc(NCC5CCOCC5)c4)ccn3)[nH]2)cc1 [Example 141, 2′-(5-Phenyl-1H-imidazol-2-yl)-N-(tetrahydro-2H-pyran-4-ylmethyl)-3,4′-bipyridin-5-amine Trifluoroacetate Salt] | > 5000 nM | ≤ 50 nM | ≤ 50 nM | –
Cc1nc(-c2cc(-c3cncc(S(C)(=O)=O)c3)ccn2)[nH]c1C [Example 108, 2′-(4,5-Dimethyl-1H-imidazol-2-yl)-5-(methylsulfonyl)-3,4′-bipyridine trifluoroacetate salt] | ≤ 300 nM | ≤ 50 nM | ≤ 50 nM | –
COc1cncc(-c2ccnc(-c3nnc(Nc4ccccc4)[nH]3)c2)c1 [Example 70, 5-(5-Methoxy-3,4′-bipyridin-2′-yl)-N-phenyl-4H-1,2,4-triazol-3-amine trifluoroacetate salt] | > 5000 nM | ≤ 500 nM | ≤ 500 nM | –
CCS(=O)(=O)Nc1cncc(-c2ccnc(-c3ncc(-c4ccccc4)[nH]3)c2)c1 [Example 130, N-[2′-(5-Phenyl-1H-imidazol-2-yl)-3,4′-bipyridin-5-yl]ethanesulfonamide Trifluoroacetate Salt] | 300 to 1000 nM | ≤ 50 nM | ≤ 50 nM | –
Cc1[nH]c(-c2cc(-c3cncc(N4CCOCC4)c3)ccn2)nc1C(=O)N[C@H]1CCN(Cc2ccccc2)C1 [Example 279, N-[(3S)-1-Benzylpyrrolidin-3-yl]-5-methyl-2-(5-morpholin-4-yl-3,4′-bipyridin-2′-yl)-1H-imidazole-4-carboxamide trifluoroacetate salt] | ≤ 300 nM | ≤ 100 nM | ≤ 50 nM | –
CS(=O)(=O)c1cncc(-c2ccnc(-c3ncc(C4CCCCC4)[nH]3)c2)c1 [Example 106, 2′-(5-Cyclohexyl-1H-imidazol-2-yl)-5-(methylsulfonyl)-3,4′-bipyridine Trifluoroacetate Salt] | ≤ 300 nM | ≤ 50 nM | ≤ 50 nM | –
CS(=O)(=O)c1cncc(-c2ccnc(-c3ncc(-c4ccccn4)[nH]3)c2)c1 [Example 118, 5-(Methylsulfonyl)-2′-(5-(pyridin-2-yl)-1H-imidazol-2-yl)-3,4′-bipyridine] | 300 to 1000 nM | ≤ 50 nM | ≤ 50 nM | –
COc1cncc(-c2ccnc(-c3ncc(-c4ccccn4)[nH]3)c2)c1 [Example 87, 5-Methoxy-2′-(5-(pyridin-2-yl)-1H-imidazol-2-yl)-3,4′-bipyridine trifluoroacetate salt] | > 5000 nM | ≤ 100 nM | ≤ 50 nM | –
Cc1nc(-c2cc(-c3cncc(C(=O)N4CC[C@H]5CCCC[C@@H]5C4)c3)ccn2)[nH]c1C [Example 187, 2′-(4,5-Dimethyl-1H-imidazol-2-yl)-5-[(4aR,8aS)-octahydroisoquinolin-2(1H)-ylcarbonyl]-3,4′-bipyridine trifluoroacetate salt] | 300 to 1000 nM | ≤ 50 nM | ≤ 100 nM | –
Cc1[nH]c(-c2cc(-c3cncc(N4CCOCC4)c3)ccn2)nc1C(=O)NC(C)c1cccc(F)c1 (racemic) [Example 277, N-[1-(3-Fluorophenyl)ethyl]-5-methyl-2-(5-morpholin-4-yl-3,4′-bipyridin-2′-yl)-1H-imidazole-4-carboxamide trifluoroacetate salt] | ≤ 300 nM | ≤ 50 nM | ≤ 50 nM | –
CC(C)c1cnc(-c2cc(-c3cncc(S(C)(=O)=O)c3)ccn2)[nH]1 [Example 111, 2′-(5-Isopropyl-1H-imidazol-2-yl)-5-(methylsulfonyl)-3,4′-bipyridine trifluoroacetate salt] | 300 to 1000 nM | ≤ 50 nM | ≤ 50 nM | –
Cc1nc(-c2cc(-c3cncc(C(=O)N4CCC(CCO)C4)c3)ccn2)[nH]c1C (racemic) [Example 169, (2′-(4,5-Dimethyl-1H-imidazol-2-yl)-3,4′-bipyridin-5-yl)(3-(2-hydroxyethyl)pyrrolidin-1-yl)methanone] | 1000 to 5000 nM | ≤ 100 nM | ≤ 50 nM | –
N#CCn1cc(-c2ccnc(-c3ncc(-c4ccccc4)[nH]3)c2)cn1 [Example 56, 2-(4-(2-(5-Phenyl-1H-imidazol-2-yl)pyridin-4-yl)-1H-pyrazol-1-yl)acetonitrile trifluoroacetate salt] | ≤ 300 nM | ≤ 100 nM | ≤ 100 nM | –
Cc1nc(-c2cc(C3=CCCN(S(=O)(=O)c4ccc(Cl)cc4)C3)ccn2)[nH]c1C [Example 221, 4-(1-(4-Chlorophenylsulfonyl)-1,2,5,6-tetrahydropyridin-3-yl)-2-(4,5-dimethyl-1H-imidazol-2-yl)pyridine trifluoroacetate salt] | > 5000 nM | ≤ 100 nM | ≤ 500 nM | –
Cc1[nH]c(-c2cc(-c3cncc(S(C)(=O)=O)c3)ccn2)nc1C(=O)N1CCOCC1 [Example 244, 2′-[5-Methyl-4-(morpholin-4-ylcarbony1)-1H-imidazol-2-yl]-5-(methylsulfony1)-3,4′-bipyridine] | – | ≤ 100 nM | ≤ 50 nM | > 5000 nM
COc1cncc(-c2ccnc(-c3nnc(-c4ccccc4)[nH]3)c2)c1 [Example 71, 5-Methoxy-2′-(5-phenyl-4H-1,2,4-triazol-3-yl)-3,4′-bipyridine] | > 5000 nM | ≤ 500 nM | ≤ 500 nM | –
Cc1nc(-c2cc(-c3cncc(C(=O)N4CCN(C5CCN(C)CC5)CC4)c3)ccn2)[nH]c1C [Example 158, (2′-(4,5-Dimethyl-1H-imidazol-2-yl)-3,4′-bipyridin-5-yl)(4-(1-methylpiperidin-4-yl)piperazin-1-yl)methanone] | 1000 to 5000 nM | ≤ 50 nM | ≤ 100 nM | –
Cc1nc(-c2cc(-c3cncc(C(=O)N(C)Cc4ccccc4)c3)ccn2)[nH]c1C [Example 193, N-Benzyl-2′-(4,5-dimethyl-1H-imidazol-2-yl)-N-methyl-3,4′-bipyridine-5-carboxamide trifluoroacetate salt] | ≤ 300 nM | ≤ 50 nM | ≤ 50 nM | –
CNC(=O)c1nc(-c2cc(-c3cnn(Cc4ccc(Cl)cc4)c3)ccn2)[nH]c1C [Example 296] | > 5000 nM | ≤ 50 nM | > 500 nM | –
Cc1[nH]c(-c2cc(-c3cncc(N4CCOCC4)c3)ccn2)nc1C(=O)NC1CCCC1 [Example 258, N-Cyclopentyl-5-methyl-2-(5-morpholin-4-yl-3,4′-bipyridin-2′-yl)-1H-imidazole-4-carboxamide] | ≤ 300 nM | ≤ 50 nM | ≤ 50 nM | –
Cc1[nH]c(-c2cc(-c3cncc(S(C)(=O)=O)c3)ccn2)nc1C(=O)N1CC(O)C1 [Example 247, l-({5-Methyl-2-[5-(methylsulfonyl)-3,4′-bipyridin-2′-yl]-1H-imidazol-4-yl}carbonyl)azetidin-3-ol] | – | ≤ 50 nM | ≤ 50 nM | > 5000 nM
Cc1nc(-c2cc(-c3cncc(C(=O)N(C)c4ccccc4)c3)ccn2)[nH]c1C [Example 194, 2′-(4,5-Dimethyl-1H-imidazol-2-yl)-N-methyl-N-phenyl-3,4′-bipyridine-5-carboxamide trifluoroacetate salt] | ≤ 300 nM | ≤ 50 nM | ≤ 50 nM | –
Cc1nc(-c2cc(-c3cncc(C(=O)N4CC[C@H](O)C4)c3)ccn2)[nH]c1C [Example 146, (S)-(2′-(4,5-Dimethyl-1H-imidazol-2-yl)-3,4′-bipyridin-5-yl)(3-hydroxypyrrolidin-1-yl)methanone] | ≤ 300 nM | ≤ 50 nM | ≤ 50 nM | –
